# Molecular target: BTK (Homo sapiens, UniProt Q06187)
# Assay: biochemical
# Conditions: read-out: BTK inhibition (%), 0.75 uM BTK, […] probe 3l, 15 min preincubation
# BTK, sequence (Q06187 402-655 limits assumed): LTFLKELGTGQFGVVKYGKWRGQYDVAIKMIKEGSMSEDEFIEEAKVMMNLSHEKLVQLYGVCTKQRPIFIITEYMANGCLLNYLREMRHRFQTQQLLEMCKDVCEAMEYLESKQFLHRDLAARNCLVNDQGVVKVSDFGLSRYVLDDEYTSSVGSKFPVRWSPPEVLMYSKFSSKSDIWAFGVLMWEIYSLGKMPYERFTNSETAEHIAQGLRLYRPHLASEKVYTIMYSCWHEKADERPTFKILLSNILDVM
row,Structure (SMILES),inhibition at 10 µM
1,Nc1ncnc2c1ncn2[C@@H]1O[C@H](COP(=O)(O)O)[C@@H](O)[C@H]1O [PCM-0086027],-23.2%
2,COc1cc([C@@H]2c3cc4c(cc3[C@@H](O[C@@H]3O[C@@H]5CO[C@@H](c6cccs6)O[C@H]5[C@H](O)[C@H]3O)[C@H]3COC(=O)[C@H]23)OCO4)cc(OC)c1O [PCM-0095114],24.1%
3,CCn1c2ccccc2c2cc(CNCc3ccccc3OC)ccc21 [PCM-0215626],-27.8%
4,Nc1nc(CC(=O)Nc2ccc(CCNC[C@H](O)c3ccccc3)cc2)cs1 [PCM-0095557],3.9%
5,COc1ccc2c(c1)=C(CC(=O)N1CCOCC1)C(C)(C(=O)c1ccc(Cl)cc1)N=2 (stereo not drawn) [PCM-0095476],-2.3%
6,COc1ccc(C[C@@H]2c3cc(Oc4cc(C[C@@H]5c6cc(O)c(OC)cc6CCN5C)ccc4O)c(OC)cc3CCN2C)cc1 [PCM-0216496],16.2%
7,NC(=O)[C@H](CCCN=C(N)CCl)NC(=O)c1ccccc1 [PCM-0215816],-5.5%
8,CCOC(=O)/C=C\C(=O)OCC [PCM-0215691],10.1%
9,O=C(Nc1ccc(S(=O)(=O)Nc2ccccc2Cl)c(Cl)c1)c1ccccn1 [PCM-0095621],-21.6%
10,C[C@@H](CC[C@@]1(O)O[C@H]2C[C@H]3[C@@H]4CC[C@@H]5C[C@@H](O[C@@H]6O[C@H](CO)[C@H](O)[C@H](O)[C@H]6O[C@@H]6O[C@H](CO)[C@@H](O)[C@H](O)[C@H]6O)CC[C@]5(C)[C@H]4CC[C@]3(C)[C@H]2[C@@H]1C)CO[C@@H]1O[C@H](CO)[C@@H](O)[C@H](O)[C@H]1O [PCM-0216516],-3.9%
11,C[C@@H]1CC[C@@]2(NC1)O[C@H]1C[C@H]3[C@@H]4CC=C5C[C@@H](O[C@@H]6O[C@H](CO)[C@@H](O[C@@H]7O[C@@H](C)[C@H](O)[C@@H](O)[C@H]7O)[C@H](O)[C@H]6O[C@@H]6O[C@@H](C)[C@H](O)[C@@H](O)[C@H]6O)CC[C@]5(C)[C@H]4CC[C@]3(C)[C@H]1[C@@H]2C [PCM-0216423],17.8%
12,OCC1(O)COc2cc(O)ccc2-c2cc(O)c(O)cc2C1 (stereo not drawn) [PCM-0216494],39.4%
13,COc1cc2ncnc(Nc3ccc(F)c(Cl)c3)c2cc1NC(=O)/C=C/CN1CCCCC1 [PCM-0095444],18.6%
14,N[C@@H](Cc1cc(I)c(Oc2cc(I)c(O)c(I)c2)c(I)c1)C(=O)O [PCM-0085937],19.5%
15,COc1ccc(C(=O)Nc2sc3c(c2C(N)=O)CCCC3)cc1OC [PCM-0095611],6.9%
16,C[C@@H]1O[C@@H](OC[C@H]2O[C@@H](Oc3c(-c4ccc(O)c(O)c4)oc4cc(O)cc(O)c4c3=O)[C@H](O)[C@@H](O)[C@@H]2O)[C@H](O)[C@H](O)[C@H]1O [PCM-0087529],-2.1%
17,O=C1OC(COc2ccccc2[N+](=O)[O-])CC1Cc1ccccc1 (stereo not drawn) [PCM-0215840],-3.1%
18,CC(C)=C[C@H]1C[C@](C)(O)[C@@H]2[C@H]3CC[C@@H]4[C@@]5(C)CC[C@H](O[C@@H]6OC[C@H](O)[C@H](O[C@@H]7O[C@H](CO[C@@H]8O[C@H](CO)[C@@H](O)[C@H](O)[C@H]8O)[C@@H](O)[C@H](O)[C@H]7O[C@@H]7OC[C@@H](O)[C@H](O)[C@H]7O)[C@H]6O[C@@H]6O[C@@H](C)[C@H](O)[C@@H](O)[C@H]6O)C(C)(C)[C@@H]5CC[C@@]4(C)[C@@]34CO[C@@]2(C4)O1 [PCM-0216469],10%
19,O=C1CCCC(=O)C1C(=O)c1ccc(C(F)(F)F)cc1[N+](=O)[O-] [PCM-0216128],-10%
20,CC(=O)N[C@@H](CC(C)C)C(=O)N[C@@H](CC(C)C)C(=O)N[C@H](C=O)CCCN=C(N)N [PCM-0215331],9.3%
21,C=C1C(=O)O[C@H]2[C@H]1CC/C(C)=C/CC[C@@]1(C)O[C@@H]21 [PCM-0214682],18.7%
22,CC(=O)N1CCN(c2ccc(OC[C@@H]3CO[C@@](Cn4ccnc4)(c4ccc(Cl)cc4Cl)O3)cc2)CC1 [PCM-0065423],-29.8%

row,Structure (SMILES),inhibition at 10 µM
1,Cc1cccn2c(=O)c(-c3nnn[nH]3)cnc12 [PCM-0086031],-17%
2,C=C1/C(=C\C=C2/CCC[C@]3(C)[C@@H]([C@H](C)/C=C/[C@H](C)C(C)C)CC[C@@H]23)C[C@@H](O)C[C@@H]1O [PCM-0214626],4.1%
3,COc1ccc2ccc(=O)oc2c1CC=C(C)C [PCM-0094564],-70%
4,CC(C(=O)O)c1ccc(CC2CCCC2=O)cc1 (stereo not drawn) [PCM-0065463],1.7%
5,O=c1[nH]c2ccccc2o1 [PCM-0216203],5.4%
6,CC(=O)c1ccc(O)c(C(=O)O)c1 [PCM-0215053],-9.3%
7,NC1=N[C@@]2(c3cc(NC(=O)c4ccc(F)cn4)ccc3F)COC[C@H]2CS1 [PCM-0095207],-3.1%
8,CC(C)(C)NC[C@H](O)COc1nsnc1N1CCOCC1 [PCM-0064983],-3.9%
9,OC[C@H]1O[C@@H](Oc2c(O)cc(O)cc2/C=C/c2ccc(O)cc2)[C@H](O)[C@@H](O)[C@@H]1O [PCM-0215025],9.7%
10,NCC1OC(OC2C(N)CC(N)C(OC3OC(CO)C(O)C(N)C3O)C2O)C(N)CC1O (stereo not drawn) [PCM-0086125],21.3%
11,CCCCOc1ccc(C(=O)CCN2CCCCC2)cc1 [PCM-0085815],-10.1%
12,C=C(C)[C@@H]1CC[C@]2(C(=O)O[C@@H]3O[C@H](CO[C@@H]4O[C@H](CO)[C@@H](O[C@@H]5O[C@@H](C)[C@H](O)[C@@H](O)[C@H]5O)[C@H](O)[C@H]4O)[C@@H](O)[C@H](O)[C@H]3O)CC[C@]3(C)[C@H](CC[C@@H]4[C@@]5(C)CC[C@H](O[C@@H]6OC[C@H](O)[C@H](O)[C@H]6O[C@@H]6O[C@@H](C)[C@H](O)[C@@H](O)[C@H]6O)[C@@](C)(CO)[C@@H]5CC[C@]43C)[C@@H]12 [PCM-0216377],-42.6%
13,CS(=O)(=O)N1CCc2c(-c3cnc(N)nc3)nc(N3CCOCC3)nc21 [PCM-0095409],-5.5%
14,CC[C@H]1OC(=O)[C@@](C)(F)C(=O)[C@H](C)[C@@H](O[C@@H]2O[C@H](C)C[C@H](N(C)C)[C@H]2O)[C@](C)(OC)C[C@@H](C)C(=O)[C@H](C)[C@H]2N(CCCCn3cc(-c4cccc(N)c4)nn3)C(=O)O[C@]12C [PCM-0216086],-22.1%
15,CCC(=O)Nc1cccc(Oc2nc(Nc3ccc(N4CCN(C)CC4)cc3OC)ncc2Cl)c1 [PCM-0095726],-2.1%
16,CCc1ccc(C(=O)C(C)CN2CCCCC2)cc1 (stereo not drawn) [PCM-0215109],-24.1%
17,O[C@@H](CNC[C@H](O)[C@H]1CCc2cc(F)ccc2O1)[C@@H]1CCc2cc(F)ccc2O1 [PCM-0095721],-14%
18,Nc1nc(=O)n([C@@H]2CS[C@H](CO)O2)cc1F [PCM-0086099],-10.1%
19,O=C(O)[C@@]1(CCCCCCOc2ccc(Cl)cc2)CO1 [PCM-0215742],-1.5%
20,Clc1ccc(CCC(Cn2ccnc2)Sc2c(Cl)cccc2Cl)cc1 (stereo not drawn) [PCM-0085946],37.4%
21,CCCN=C1S/C(=C\c2ccc(OC[C@H](O)CO)c(Cl)c2)C(=O)N1c1ccccc1C [PCM-0215632],9%
22,COc1cc2ncnc(Nc3cccc(Cl)c3F)c2cc1OC(=O)N1CCN(C)C[C@H]1C [PCM-0215575],-19.3%

row,Structure (SMILES),inhibition at 10 µM
1,OCCn1cc(-c2ccc3c(c2)CC/C3=N\O)c(-c2ccncc2)n1 [PCM-0094883],16.6%
2,CN[C@@H](C)C(=O)N[C@H]1CN(C(=O)CC(C)C)CC[C@H]2CC[C@@H](C(=O)NC(c3ccccc3)c3ccccc3)N2C1=O [PCM-0214841],-9.3%
3,COc1ccc([C@@H]2CC(=O)c3c(O)cc(O)cc3O2)cc1O [PCM-0091279],-11.7%
4,O=C(NCCO[N+](=O)[O-])c1cccnc1 [PCM-0085806],-5.4%
5,CC1(C)CC[C@]2(C(=O)O)CC[C@]3(C)C(=CC[C@@H]4[C@@]5(C)CC[C@H](O[C@@H]6O[C@H](C(=O)O)[C@@H](O)[C@H](O[C@@H]7OC[C@@H](O)[C@H](O)[C@H]7O)[C@H]6O)C(C)(C)[C@@H]5CC[C@]43C)[C@@H]2C1 [PCM-0216434],3.9%
6,CCOC(=O)C1=C(N)Oc2ccc(Br)cc2C1C(C#N)C(=O)OCC (stereo not drawn) [PCM-0214778],15.6%
7,COc1ccc(CC(=O)Nc2nc3c(s2)CCc2ccccc2-3)cc1OC [PCM-0215753],55.9%
8,CC1(C)CC[C@]2(C(=O)O)CC[C@]3(C)C(=CC[C@@H]4[C@@]5(C)C[C@@H](O)[C@H](O)C(C)(C)[C@@H]5CC[C@]43C)[C@@H]2C1 [PCM-0216611],20.1%
9,CN1CCC(=C2c3ccccc3CC(=O)c3sccc32)CC1 [PCM-0065580],10.3%
10,CCNC(=O)c1noc(-c2cc(Cl)c(O)cc2O)c1-c1ccc(OC)cc1 [PCM-0215317],11.6%
11,Cn1sc(=O)n(Cc2ccccc2)c1=O [PCM-0095428],4.8%
12,Cc1cc(Nc2cc(CN3CCOCC3)c3nc(C)c(Cc4ccc(Cl)cc4F)n3n2)n[nH]1 [PCM-0095222],56.6%
13,Cc1ccnc(NS(=O)(=O)c2ccc(N)cc2)n1 [PCM-0086511],1.6%
14,C[C@H]1O[C@@H](O[C@H]2CC[C@@]3(C)[C@@H](CC[C@]4(C)[C@@H]3C=CC3=C5CC(C)(C)CC[C@]5(CO)[C@@H](O)C[C@]34C)[C@]2(C)CO)[C@H](O[C@@H]2O[C@H](CO)[C@@H](O)[C@H](O)[C@H]2O)[C@@H](O[C@@H]2O[C@H](CO)[C@@H](O)[C@H](O)[C@H]2O)[C@H]1O [PCM-0216370],25.5%
15,CCCCCCCCCCCCCCCC(=O)OCC [PCM-0216630],-12.4%
16,C=C1C[C@@]23CC[C@H]4[C@@](C)(CCC[C@@]4(C)C(=O)O)[C@@H]2CC[C@@H]1C3 [PCM-0216330],-3.9%
17,CS(=O)(=O)c1ccc(-c2nnc(/C=C/c3nnc(-c4ccc(C#N)cc4)o3)n2-c2ccccc2Cl)nc1 [PCM-0215499],0%
18,Nc1nc2ccc(OC(F)(F)F)cc2s1 [PCM-0065440],-10.1%
19,C[N+](C)(C)CCCCCC[N+](C)(C)C [PCM-0065242],-14.5%
20,NC(=S)N/N=C/c1ncccc1N [PCM-0095816],-1.5%
21,CN1CCN(C(=O)/C=C/c2ccc([N+](=O)[O-])o2)CC1 [PCM-0215590],4.6%
22,CNC(=O)c1ccc(N2C(=S)N(c3ccc(C#N)c(C(F)(F)F)c3)C(=O)C2(C)C)cc1F [PCM-0095003],-10.3%
